In the supplement of paper PMC10307832:

Assays:
Assay in all cases: relative viability (nuclei count vs DMSO), 5 days (fraction); higher = more cells survive
[1] = compound: CCOc1cc2ncc(C#N)c(Nc3ccc(OCc4ccccn4)c(Cl)c3)c2cc1NC(=O)/C=C/CN(C)C [Neratinib] + C[C@@H](Oc1cc(-c2cnn(C3CCNCC3)c2)cnc1N)c1c(Cl)ccc(F)c1Cl [Crizotinib] (partner 1 µM)
Procedure, shortened: (§1)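 Dosing by pin tool came one day after lung cancer cell lines were seeded in 1536-well plates, using either one drug or a fixed anchor-drug dose plus five library-drug doses (not always all listed) in √10 steps. After 5 days, nuclei were counted on 4× images. Relative viability is treated-well nuclei count divided by vehicle-well nuclei count, and values are medians of duplicate plates.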

[2] = compound: CCOc1cc2ncc(C#N)c(Nc3ccc(OCc4ccccn4)c(Cl)c3)c2cc1NC(=O)/C=C/CN(C)C [Neratinib] + CS(=O)(=O)CCNCc1ccc(-c2ccc3ncnc(Nc4ccc(OCc5cccc(F)c5)c(Cl)c4)c3c2)o1 [Lapatinib] (partner 2 µM)
Procedure, shortened: as §1

[3] = compound: CCOc1cc2ncc(C#N)c(Nc3ccc(OCc4ccccn4)c(Cl)c3)c2cc1NC(=O)/C=C/CN(C)C [Neratinib] + Nc1ncn([C@H]2C[C@H](O)[C@@H](CO)O2)c(=O)n1 [Decitabine] (partner 2 µM)
Procedure, shortened: as §1

[4] = compound: CCOc1cc2ncc(C#N)c(Nc3ccc(OCc4ccccn4)c(Cl)c3)c2cc1NC(=O)/C=C/CN(C)C [Neratinib] + Cc1cc(Nc2cc(N3CCN(C)CC3)nc(Sc3ccc(NC(=O)C4CC4)cc3)n2)n[nH]1 [Tozasertib] (partner 0.1 µM)
Procedure, shortened: as §1

Cell Line | relative viability ([1]; first compound 0.01 µM) | relative viability ([1]; first compound 0.03162 µM) | relative viability ([1]; first compound 0.1 µM) | relative viability ([1]; first compound 0.3162 µM) | relative viability ([1]; first compound 1 µM) | relative viability ([2]; first compound 0.01 µM) | relative viability ([2]; first compound 0.03162 µM) | relative viability ([2]; first compound 0.1 µM) | relative viability ([2]; first compound 1 µM) | relative viability ([3]; first compound 0.01 µM) | relative viability ([3]; first compound 0.03162 µM) | relative viability ([3]; first compound 0.1 µM) | relative viability ([3]; first compound 0.3162 µM) | relative viability ([3]; first compound 1 µM) | relative viability ([4]; first compound 0.01 µM) | relative viability ([4]; first compound 0.03162 µM) | relative viability ([4]; first compound 0.1 µM) | relative viability ([4]; first compound 0.3162 µM) | relative viability ([4]; first compound 1 µM) | relative viability ([2]; first compound 0.3162 µM)
RERF-LC-KJ | 0.847 | 0.817 | 0.795 | 0.701 | 0.633 | 0.78 | 0.923 | 0.854 | 0.915 | 0.777 | 0.744 | 0.618 | 0.72 | 0.457 | 0.553 | 0.593 | 0.586 | 0.5 | 0.293 | 
SK-LU-1 | 1.05 |  | 0.848 | 0.604 | 0.402 | 0.921 | 0.904 | 0.809 | 0.507 | 0.662 | 0.796 | 0.588 | 0.579 | 0.421 | 0.292 | 0.305 | 0.277 | 0.294 | 0.227 | 0.74
SK-MES-1 | 1.02 | 0.998 | 0.969 |  | 0.314 | 0.512 | 0.479 | 0.393 | 0.364 | 0.401 | 0.403 | 0.3 | 0.299 | 0.221 | 0.947 | 0.996 | 0.955 | 0.631 | 0.21 | 0.435
SW 1573 | 0.91 | 0.929 | 0.892 | 0.628 | 0.546 | 1.27 | 1.13 | 1.24 | 1.16 | 0.466 | 0.628 | 0.574 | 0.507 | 0.265 | 0.203 | 0.152 | 0.194 | 0.177 | 0.122 | 1.15
UMC-11 | 0.651 | 0.684 | 0.52 | 0.537 | 0.528 | 1.03 | 1.11 | 0.604 | 0.745 | 0.324 | 0.574 | 0.634 | 0.414 | 0.194 | 0.198 | 0.2 | 0.216 | 0.179 | 0.185 | 0.841
